Tested on: P. aeruginosa C1
Experiment: P. aeruginosa lung infection mouse model
Type: in vivo, C57BL/6 mice
Conditions: for median lung bacteria load: 2 times per day for 3 days, n = 8, vehicle 2.51 × 10^7 CFU/g; for inhibition of lung colonization: vs vehicle

Which results are given for colistin sulfate?
median lung bacteria load (2 mg/kg i.v.): 1.72 × 10^7 CFU/g; inhibition of lung colonization (2 mg/kg i.v.): 31%; median lung bacteria load (4 mg/kg i.v.): 0.86 × 10^7 CFU/g; inhibition of lung colonization (4 mg/kg i.v.): 65%

— publication PMC6936460 (Proceedings of the National Academy of Sciences of the …, 2019)
